{"source": "patent US7678776B2", "about": "“Inclusion complexes of butylphthalide with cyclodextrin or its derivatives, a process for their preparation and the use thereof” (Shijiazhuang Pharma. Group Zhongqi Pharmaceutical …, priority 2002, dated 2010)", "tested_on": "marginal ear vein of a rabbit", "assay": "vascular irritation assay", "type": "in vivo", "settings": "control group, administered into the ear vein for 3 days", "protocol": "The vascular irritation assay using inclusion complex of butylphthalide with hydroxypropyl-β-cyclodextrin is provided as follows:\nEight rabbits were divided into two groups, namely, test group and control group. For the test group, 2.45 g/kg of the inclusion complex together with 40 ml of 5% glucose were instilled via the marginal ear vein of a rabbit at the rate of 1.5 ml/min. The administration was once per day and lasted for 3 days. […] The administration lasted for 3 days.", "data": [{"compound": "CC(=O)O", "note": "[10% acetic acid, acetic acid]", "values": [{"measurement": "vascular irritation (topical findings)", "result": "topical hyperaemia, thickening, and exudation"}]}]}
